# Test results from ChEMBL document CHEMBL1121625, “Crystal structures of calcium channel antagonists: 2,6-dimethyl-3,5-dicarbomethoxy-4-[2-nitro-, 3-cyano-, 4-(dimethylamino)-, and 2,3,4,5,6-pentafluorophenyl]-1,4-dihydropyridine” (1980).
# Species: Cavia porcellus
# Assay: The compound was tested for inhibition of muscarinic responses in guinea pig ileal longitudinal smooth muscle
# Assay type: functional, Muscle tissue
row,Structure (SMILES),ID50 [nM]
1,COC(=O)C1=C(C)NC(C)=C(C(=O)OC)C1c1ccc(N(C)C)cc1,50000
2,COC(=O)C1=C(C)N=C(C)/C(=C(\O)OC)C1c1c(F)c(F)c(F)c(F)c1F (centres undefined),0.9
3,COC(=O)C1=C(C)N=C(C)/C(=C(\O)OC)C1c1cccc(C#N)c1 (centres undefined),300
4,COC(=O)C1=C(C)NC(C)=C(C(=O)OC)C1c1ccccc1[N+](=O)[O-] [NIFEDIPINE],5.1
